Read-outs that look alike come from different tables or passages of the source.
What was measured:
[1] = biological target: T1, cytoplasmic domain of the human CSF-1R (Homo sapiens, UniProt P07333); assay: In vitro kinase assay for colony stimulating factor-1 receptor (AlphaScreen); type: biochemical; details: tested at about 1 μM, read-out: CSF-1R percent inhibition
T1 construct: Recombinant protein corresponding to the cytoplasmic domain of the human CSF-1R; purchased Invitrogen Corporation, Carlsbad, Calif; PV3249
T1 sequence (P07333 539-972 limits assumed): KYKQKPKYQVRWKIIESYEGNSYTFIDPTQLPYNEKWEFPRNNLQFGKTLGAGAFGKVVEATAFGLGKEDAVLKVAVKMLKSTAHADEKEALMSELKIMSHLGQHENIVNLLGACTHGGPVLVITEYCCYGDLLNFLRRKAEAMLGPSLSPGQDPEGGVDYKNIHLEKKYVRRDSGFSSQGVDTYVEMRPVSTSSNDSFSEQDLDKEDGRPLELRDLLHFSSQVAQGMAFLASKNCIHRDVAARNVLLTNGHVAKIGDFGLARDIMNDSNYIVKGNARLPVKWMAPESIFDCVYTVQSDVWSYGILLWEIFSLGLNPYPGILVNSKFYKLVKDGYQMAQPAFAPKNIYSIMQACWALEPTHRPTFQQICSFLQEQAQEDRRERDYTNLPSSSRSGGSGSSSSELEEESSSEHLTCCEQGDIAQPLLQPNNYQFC
Method in brief: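 Tyrosine phosphorylation of a peptide substrate by 4 nM recombinant cytoplasmic-domain enzyme is measured at 1 μM ATP in Mn2+/Mg2+-containing Hepes buffer, pH 7.5. Detection uses PT66 AlphaScreen beads after overnight incubation.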

[2] = biological target: T2, full-length human CSF-1R receptor (Homo sapiens, UniProt P07333); assay: In vitro inhibition of CSF-1R receptor tyrosine phosphorylation in transfected HEK293H cells stimulated with MCSF; type: cell-based; details: HEK293-H, tested at about 1 μM, read-out: pCSF1R percent inhibition
T2 construct: transfected with the full-length human CSF-1R receptor cloned in house; expressed in transfected cells; host or cells: HEK293H (Invitrogen Cat. #11631017)
T2 sequence (P07333 20-972): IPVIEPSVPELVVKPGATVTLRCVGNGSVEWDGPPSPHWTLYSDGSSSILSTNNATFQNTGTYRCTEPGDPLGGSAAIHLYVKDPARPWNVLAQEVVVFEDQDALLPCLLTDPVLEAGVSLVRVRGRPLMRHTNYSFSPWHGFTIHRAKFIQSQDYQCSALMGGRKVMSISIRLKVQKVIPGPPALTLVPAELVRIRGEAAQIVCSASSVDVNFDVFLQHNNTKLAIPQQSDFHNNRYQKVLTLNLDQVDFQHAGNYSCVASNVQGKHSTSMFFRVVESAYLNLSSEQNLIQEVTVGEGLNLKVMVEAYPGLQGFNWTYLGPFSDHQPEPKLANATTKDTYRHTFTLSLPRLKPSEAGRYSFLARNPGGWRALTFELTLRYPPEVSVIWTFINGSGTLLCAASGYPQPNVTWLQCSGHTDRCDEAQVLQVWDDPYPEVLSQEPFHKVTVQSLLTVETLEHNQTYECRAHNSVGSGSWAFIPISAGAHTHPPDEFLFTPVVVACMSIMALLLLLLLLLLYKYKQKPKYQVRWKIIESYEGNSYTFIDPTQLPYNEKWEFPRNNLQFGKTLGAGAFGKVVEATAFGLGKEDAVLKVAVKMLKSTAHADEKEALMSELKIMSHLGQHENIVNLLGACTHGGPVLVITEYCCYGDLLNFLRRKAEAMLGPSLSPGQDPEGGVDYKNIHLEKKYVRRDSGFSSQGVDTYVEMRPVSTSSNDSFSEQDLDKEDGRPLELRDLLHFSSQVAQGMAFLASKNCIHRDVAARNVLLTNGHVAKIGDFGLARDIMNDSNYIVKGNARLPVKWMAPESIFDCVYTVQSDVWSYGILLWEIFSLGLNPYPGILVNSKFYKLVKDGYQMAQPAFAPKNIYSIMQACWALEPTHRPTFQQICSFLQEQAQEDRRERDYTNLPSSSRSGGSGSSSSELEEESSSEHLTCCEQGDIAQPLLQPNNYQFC
Procedure: The lysate was then transferred to total CSF-1R antibody coated 96-well plates that had already been blocked with 3% Blocker A from Mesoscale discovery (MSD) for 2 hours and washed afterwards. Lysates were incubated overnight at 4° C. and the plates were then washed 4× with MSD Tris Wash Buffer. […] The plates were read on the Sector 6000 instrument (MSD). Raw data was imported in Abase and EC50s calculated with XL-fit data analysis software.

kinase domain of cKIT = biological target: T3, kinase domain of cKIT (Homo sapiens, UniProt P10721); assay: Inhibition of cKIT kinase signaling in an in vitro biochemical assay (alphascreen); details: tested at about 1 μM, read-out: cKit percent inhibition
T3 construct: The kinase domain of cKIT was assayed in 50 mM Hepes; purchased Upstate 14-559
T3 sequence (P10721 589-937 limits assumed): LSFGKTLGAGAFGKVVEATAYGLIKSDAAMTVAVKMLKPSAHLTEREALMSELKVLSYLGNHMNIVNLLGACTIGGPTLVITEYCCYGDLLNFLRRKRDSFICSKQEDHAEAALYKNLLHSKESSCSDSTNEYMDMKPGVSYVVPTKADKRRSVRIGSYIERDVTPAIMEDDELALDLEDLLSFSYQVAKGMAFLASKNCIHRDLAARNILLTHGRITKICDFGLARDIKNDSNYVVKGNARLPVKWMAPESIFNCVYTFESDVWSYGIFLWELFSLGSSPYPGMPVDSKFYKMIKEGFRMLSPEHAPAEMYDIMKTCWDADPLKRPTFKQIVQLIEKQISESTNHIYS

kinase domain of PDGFRβ = biological target: T4, kinase domain of PDGFRβ (Homo sapiens, UniProt P09619); assay: Inhibition of PDGFRb kinase signaling in an in vitro biochemical assay (alphascreen); details: tested at about 1 μM, read-out: PDGFRβ percent inhibition
T4 construct: The kinase domain of PDGFRβ was assayed in 50 mM Hepes; purchased Invitrogen P3082
T4 sequence (P09619 600-962 limits assumed): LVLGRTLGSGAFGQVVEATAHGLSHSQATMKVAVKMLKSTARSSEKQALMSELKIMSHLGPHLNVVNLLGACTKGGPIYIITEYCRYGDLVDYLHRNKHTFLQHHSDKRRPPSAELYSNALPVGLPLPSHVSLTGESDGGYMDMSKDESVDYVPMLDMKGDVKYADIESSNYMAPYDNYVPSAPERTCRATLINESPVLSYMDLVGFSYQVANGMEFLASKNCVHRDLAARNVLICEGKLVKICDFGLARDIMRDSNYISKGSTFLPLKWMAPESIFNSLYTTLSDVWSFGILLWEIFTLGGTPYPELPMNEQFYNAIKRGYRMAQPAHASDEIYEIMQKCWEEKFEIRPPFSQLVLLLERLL

[3] = test system: MNFS60 (murine AML cells); assay: Cell viability assay in MCSF dependent MNFS60 cells (Cell Titer Glo); type: cell-based; details: Mus musculus, tested at about 1 μM, read-out: M-NFS-60 CP percent inhibition
Method in brief: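 EC50 values reflect MCSF-driven (10 ng/ml final) proliferation over 72 hrs at 37° C., read by CellTiter-Glo. Each condition was run in triplicate.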

| Compound | inhibition at 1 µM [1] [%] | inhibition at 1 µM ([2]; HEK293H cells) [%] | inhibition at 1 µM (kinase domain of cKIT) [%] | inhibition at 1 µM (kinase domain of PDGFRβ) [%] | inhibition at 1 µM ([1]; compounds of Table 3) [%] | inhibition at 1 µM ([2]; compounds of Table 3) [%] | inhibition at 1 µM (kinase domain of cKIT; compounds of Table 3) [%] | inhibition at 1 µM (kinase domain of PDGFRβ; compounds of Table 3) [%] | inhibition at 1 µM ([3]; compounds of Table 3) [%] | also measured |
| --- | --- | --- | --- | --- | --- | --- | --- | --- | --- | --- |
| CNC(=O)c1cc(Oc2ccc3nc(NCc4c(OC)cccc4OC)sc3c2)ccn1 [Compound 145, 4-[2-(2,6-Dimethoxy-benzyl-amino)-benzothiazol-6-yloxy]-pyridine-2-carboxylic acid methylamide] | 99 | 98 | 34 | 25 |  |  |  |  |  | inhibition at 1 µM ([3]; MNFS60 cells): 100% |
| Cc1c[nH]c(-c2cc(Oc3ccc4nc(N[C@@H]5CCCC[C@H]5O)sc4c3)ccn2)n1 [Example 231, (1R,2R)-2-(6-(2-(4-methyl-1H-imidazol-2-yl)pyridin-4-yloxy)benzo[d]thiazol-2-ylamino)cyclohexanol] |  |  |  |  | 100 | 99 | 9 | 49 | 100 |  |
| CNC(=O)c1cc(Oc2ccc3nc(N[C@@H]4CCCC[C@H]4O)sc3c2Br)ccn1 [Example 376, 4-(7-bromo-2-((1R,2R)-2-hydroxycyclohexylamino)benzo[d]thiazol-6-yloxy)-N-methylpicolinamide] | 100 | 77 | 72 | 28 |  |  |  |  |  | inhibition at 1 µM ([3]; MCSF dependent MNFS60 cells): 87% |
| CNC(=O)c1cc(Oc2ccc3nc(N[C@H]4CCCC[C@@H]4NS(C)(=O)=O)sc3c2)ccn1 [Example 330, N-mehtyl-4-(2-((1S,2S)-2-(methylsulfonamido)cyclo-hexylamino)benzo[d]thiazol-6-yloxy)picolinamide] | 99 | 50 | 41 | 8 |  |  |  |  |  | inhibition at 1 µM ([3]; MCSF dependent MNFS60 cells): 58% |
| CNC(=O)c1cc(Oc2ccc3nc(N[C@@H]4c5ccccc5C[C@@H]4O)oc3c2)ccn1 [Compound 50, 4-[2-((1R,2S)-2-Hydroxy-indan-1-ylamino)-benzooxazol-6-yloxy]-pyridine-2-carboxylic acid methylamide] | 56 |  | 59 | 8 | 99 |  | 13 | 14 | 18 | inhibition at 1 µM ([1]; compounds of Table 4): 100%; inhibition at 1 µM ([2]; compounds of Table 4): 99%; inhibition at 1 µM (kinase domain of cKIT; compounds of Table 4): 10%; inhibition at 1 µM (kinase domain of PDGFRβ; compounds of Table 4): 14%; inhibition at 1 µM ([3]; compounds of Table 4): 100% |
| O[C@@H]1CCCC[C@H]1Nc1nc2ccc(Oc3ccnc(-c4nc5c([nH]4)CCCC5)c3)cc2s1 [Example 258, (1R,2R)-2-(6-(2-(4,5,6,7-tetrahydro-1H-benzo[d]imidazol-2-yl)pyridin-4-yloxy)benzo[d]thiazol-2-ylamino)cyclohexanol] |  |  |  |  | 100 | 99 | 44 | 62 | 100 |  |
| C[C@H](Nc1nc2ccc(Oc3ccnc(-c4nc5c([nH]4)CCCC5)c3)cc2s1)C1CCCCC1 [Example 271, (S)-N-(1-cyclohexylethyl)-6-(2-(4,5,6,7-tetrahydro-1H-benzo[d]imidazol-2-yl)pyridin-4-yloxy)benzo[d]thiazol-2-amine] |  |  |  |  | 98 | 55 | 46 | 24 | 54 |  |
| c1cc(Oc2ccc3nc(NCC4CCCCC4)sc3c2)cc(-c2ncco2)n1 [Example 342, N-(cyclohexylmethyl)-6-(2-(oxazol-2-yl)pyridin-4-yloxy)benzo[d]thiazol-2-amine] | 100 | 87 | 84 | 61 |  |  |  |  |  | inhibition at 1 µM ([3]; MCSF dependent MNFS60 cells): 75% |
| OC[C@H](Nc1nc2ccc(Oc3ccnc4ccccc34)cc2s1)C1CCCCC1 [Example 240, (R)-2-cyclohexyl-2-(6-(quinolin-4-yloxy)benzo[d]thiazol-2-ylamino)ethanol] |  |  |  |  | 100 | 71 | 21 | 16 | 66 |  |
| O[C@@H]1CCCC[C@H]1Nc1nc2ccc(Oc3ccnc4cc(F)ccc34)cc2s1 [Example 229, (1R,2R)-2-(6-(7-fluoroquinolin-4-yloxy)benzo[d]thiazol-2-ylamino)cyclohexanol] |  |  |  |  | 100 | 92 | 21 | 30 | 80 |  |
| COCCn1cc(-c2cc(Oc3ccc4nc(N[C@@H]5c6ccccc6C[C@@H]5O)sc4c3)ccn2)cn1 [Compound 58] |  |  |  |  |  |  |  |  |  | inhibition at 1 µM ([1]; compounds of Table 4): 100%; inhibition at 1 µM ([2]; compounds of Table 4): 95%; inhibition at 1 µM (kinase domain of cKIT; compounds of Table 4): 11%; inhibition at 1 µM (kinase domain of PDGFRβ; compounds of Table 4): 0%; inhibition at 1 µM ([3]; compounds of Table 4): 100% |
| CNC(=O)c1cc(Oc2ccc3nc(NCc4cccc5c4OCCO5)sc3c2)ccn1 [Compound 152, 4-{2-[(2,3-Dihydro-benzo-[1,4]dioxin-5-ylmethyl)-amino]-benzothiazol-6-yloxy}-pyridine-2-carboxylic acid methylamide] | 99 | 98 | 100 | 82 |  |  |  |  |  | inhibition at 1 µM ([3]; MNFS60 cells): 100% |
| CCOc1ccccc1CNc1nc2ccc(Oc3ccnc(C(=O)NC)c3)cc2o1 [Compound 96, 4-[2-(2-Ethoxy-benzylamino)-benzooxazol-6-yloxy]-pyridine-2-carboxylic acid methylamide] | 99 | 89 | 33 | 3 |  |  |  |  |  | inhibition at 1 µM ([3]; MNFS60 cells): 75% |
| CCCn1cc(-c2cc(Oc3ccc4nc(N[C@@H]5CCCC[C@H]5O)sc4c3)ccn2)cn1 [Example 281, (1R,2R)-2-(6-(2-(1-propyl-1H-pyrazol-4-yl)pyridin-4-yloxy)benzo[d]thiazol-2-ylamino)cyclohexanol] |  |  |  |  | 100 | 96 | 22 | 36 | 100 |  |
| CNC(=O)c1cc(Oc2ccc3nc(NCc4ccc(=O)[nH]c4)sc3c2)ccn1 [Compound 89] |  |  |  |  | 100 | 65 | 15 | 2 | 15 |  |
| CNC(=O)c1cc(Oc2ccc3nc(NCc4cc(OC)ccc4OC)sc3c2)ccn1 [Compound 146, 4-[2-(2,5-Dimethoxy-benzyl-amino)-benzothiazol-6-yloxy]-pyridine-2-carboxylic acid methylamide] | 99 | 86 | 5 | 3 |  |  |  |  |  | inhibition at 1 µM ([3]; MNFS60 cells): 56% |
| CNC(=O)c1cc(Oc2ccc3nc(NCc4c(OC)cccc4OC)oc3c2)ccn1 [Compound 84, 4-[2-(2,6-Dimethoxy-benzyl-amino)-benzooxazol-6-yloxy]-pyridine-2-carboxylic acid methylamide] | 99 | 44 | 12 | 0 |  |  |  |  |  | inhibition at 1 µM ([3]; MNFS60 cells): 32% |
| O[C@@H]1CCCC[C@H]1Nc1nc2ccc(Oc3ccnc(-c4ncco4)c3)cc2s1 [Example 372, (1R,2R)-2-(6-(2-(oxazol-2-yl)pyridin-4-yloxy)benzo[d]thiazol-2-ylamino)cyclohexanol] | 100 | 88 | 21 | 8 |  |  |  |  |  | inhibition at 1 µM ([3]; MCSF dependent MNFS60 cells): 75% |
